Results from patent US9624159B2, “Aniline derivatives, their preparation and their therapeutic application” (SANOFI, priority 2011, dated 2017).

Tests used:
[1] = target: human prostanoid EP2 receptor (Homo sapiens (Human), UniProt P43116); assay: Human prostanoid EP2 receptor cellular functional assay (cAMP, HTRF); assay type: cell-based; details: percent of control specific agonist response (10 μM PGE2)
Experimental: Test 1.2: Human Prostanoid EP2 Receptor Cellular Functional Assay
Human CHO cells expressing the recombinant human prostanoid EP2 receptor were suspended in assay medium (HBSS buffer (Invitrogen) containing 20 mM HEPES (pH7.4) and 500 μM isobutyl-methylxanthine IBMX) and plated out to yield approximately 1×10^4 cells/well in a 96-well. Following this, cells were incubated with agonists for 30 min in the presence of the test compounds. For stimulated control measurements, separate assay wells contain 10 μM PGE2 (control specific agonist). All incubations were carried out at 37° C. in a 5% CO2 atmosphere. Following incubation, the amount of cAMP in each well was determined by HTRF method. The cells are lysed and the fluorescence acceptor (D2-labeled cAMP) and fluorescence donor (anti-cAMP antibody labeled with europium cryptate) are added. After 60 min at room temperature, the fluorescence transfer is measured at λex=337 nm and λem=620 and 665 nm using a microplate reader (Rubystar, BMG).
The cAMP concentration is determined by dividing the signal measured at 665 nm by that measured at 620 nm (ratio).
The standard reference agonist PGE2 was tested at several concentrations to generate a concentration-response curve to determined EC50.
Analysis and Expression of Results […]

[2] = tested on: laser-induced glaucomatous monkeys; assay: Laser-induced hypertensive cynomolgus monkey, intraocular pressure; assay type: in vivo; details: 0.01% topically to glaucomatous eye once daily for 5 days
Experimental: Laser-Induced Hypertensive Cynomolgus Monkey
Ten adult female cynomolgus monkeys, each weighing 3-5 kg, in which glaucoma had been induced unilaterally by diode laser photocoagulation of the mid-trabecular meshwork, were used in this study.
Intraocular pressure (IOP) was measured at 0 hr (before drug administration) and then hourly until 6 hrs after drug administration on one baseline day, one vehicle-treatment day, and treatment days 1, 3, and 5 with 0.01% of compound II(d).
Compound II(d) was tested in two groups of 4 monkeys for a total of 8 monkeys. Following one baseline day (untreated) and one vehicle-treatment day (50 μl (25 μl×2), drop of vehicle to the glaucomatous eye at 9:30 (a 50 μl drop (25 μl×2) of compound (II(d)) were topically applied to the glaucomatous eye only once daily at 9:30 am for 5 consecutive days.
Slit-lamp examination for the detection of aqueous humor flare and cells was performed in a dark room before drug administration and at 1, 3 and 5 hrs after dosing on baseline day and at the same times on treatment days 1, 3 and 5.
Two-tailed paired and unpaired t test and the ANOVA test were used for statistical analysis.

Sequence of human prostanoid EP2 receptor (P43116 whole entry): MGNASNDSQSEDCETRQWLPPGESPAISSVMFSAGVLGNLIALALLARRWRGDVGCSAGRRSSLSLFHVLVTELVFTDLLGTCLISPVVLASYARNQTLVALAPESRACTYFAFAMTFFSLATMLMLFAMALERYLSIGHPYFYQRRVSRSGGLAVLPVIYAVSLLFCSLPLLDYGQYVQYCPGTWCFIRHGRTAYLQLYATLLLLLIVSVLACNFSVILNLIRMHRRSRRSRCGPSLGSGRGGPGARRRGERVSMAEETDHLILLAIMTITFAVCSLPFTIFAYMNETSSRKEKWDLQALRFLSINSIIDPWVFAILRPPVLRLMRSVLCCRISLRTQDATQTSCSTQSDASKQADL

In vitro functional assay % response [1] [%]	Structure (SMILES)	overall IOP reduction [2] [%]
124	C[C@@H](Nc1c(F)ccc(OCC(=O)O)c1F)c1cc(-c2cccc(F)c2)ccc1F (single isomer, unassigned) [I(as) (+isomer)]	
	CC(C)OC(=O)COc1ccc(F)c(NCc2cc(-c3cccc(F)c3)ccc2F)c1F [II(d), Isopropyl 2-[2,4-difluoro-3-[[2-fluoro-5-(3-fluorophenyl)phenyl]methylamino]phenoxy]acetate]	22
